Patent EP4763837A1, “PHOTOCHROMIC COMPOUND, CURABLE COMPOSITION, OPTICAL ARTICLE, LENS, AND EYEGLASSES” (TOKUYAMA CORPORATION, priority 2023, dated 2025)
Values joined by “and” are separate entries in the source; they are usually repeats but may differ in a detail not shown here. Identical values can stand only once.

How the values were obtained:
Format in all cases: physicochemical
[1] = Photochromic property of photochromic laminate made by coating method; details: for Residual ratio: laminate by coating method, A96/A0 x 100 after 96 hours accelerated degradation, xenon weather meter X25
From the text: First, the photochromic compound obtained in Example 1, a photoinitiator, and a polymerizable compound were mixed to obtain a curable composition.
The polymerizable compound was a combination of the following radical polymerizable monomers:
Polyethylene glycol dimethacrylate (average molecular weight: 736): 42 parts by mass • Polyethylene glycol dimethacrylate (average molecular weight: 536): 12 parts by mass • Trimethylolpropane methacrylate: 38 parts by mass γ-Methacryloyloxypropyltrimethoxysilane: 2 parts by mass Glycidyl methacrylate: 1 part by mass.
Note that, in the curable composition, the photochromic compound was added in an amount of 0.25 mmol taking a total amount of the radical polymerizable monomers as 100 g.
Phenylbis(2,4,6-trimethylbenzoyl)phosphine oxide (photoinitiator: Omnirad 819): 0.3 parts by mass Ethylene bis(oxyethylene) bis[3-(5-tert-butyl-4-hydroxy-m-tolyl) propionate] (stabilizer, Irganox 245): 1 part by mass Bis(1,2,2,6,6-pentamethyl-4-piperidyl)sebacate: 3 parts by mass Leveling agent (L-7001) manufactured by DuPont Toray Specialty Materials K.K.: 0.1 parts by mass.
Using this curable composition, a photochromic laminate was obtained by a lamination method including polymerization as follows.
First, a thiourethane plastic lens with a center thickness of 2 mm and a refractive index of 1.60 was prepared as an optical substrate. Note that, the thiourethane plastic lens had been alkaline-etched in a 10% sodium hydroxide aqueous solution at 50°C for 5 minutes in advance, and then thoroughly washed with distilled water.
A spin coater (1H-DX2, manufactured by MIKASA CO., LTD) was used to coat a surface of the above-mentioned plastic lens with a moisture-curing primer (product name: TR-SC-P, manufactured by Tokuyama Corporation) at a rotation speed of 70 rpm for 15 seconds, followed by 1000 rpm for 10 seconds. Then, about 2 g of the photochromic curable composition obtained above was spin-coated at a rotation speed of 60 rpm for 40 seconds, followed by 600 rpm for 10 to 20 seconds so as to achieve a photochromic coating layer with a thickness of 40 µm.
The lens of which surface had been coated with the photochromic curable composition (photochromic coating layer) was irradiated with light for 90 seconds in a nitrogen gas atmosphere using a metal halide lamp with an output of 200 mW/cm^2 to cure the coating. The resultant was then further heated at 110°C for 1 hour to produce a photochromic laminate with a photochromic layer.
Photochromic laminates were produced using the photochromic compounds obtained in Examples 2 to 20 in the same manner as in Example 21.
Photochromic laminates were obtained using photochromic compounds represented by Formulae (A) to (D) below in the same manner as in Example 21. [drawing 89] [drawing 90] [drawing 91] [drawing 92] [drawing 93]
The resulting photochromic laminates were evaluated by the below-mentioned methods. • (1) Photochromic property • [1] Maximum absorption wavelength (λmax): This is the maximum absorption wavelength after color development determined by a spectrophotometer manufactured by Otsuka Electronics Co., Ltd. (instantaneous multichannel photo detector MCPD3000) and was used as an index of a color tone upon color development. • [2] Color developing density at 23°C (A23): This is a difference between an absorbance {ε(240)} after irradiation with light at 23°C for 240 seconds and an absorbance ε(0) when not irradiated with light at the maximum absorption wavelength and was used as an index of a color developing density. The higher this value is, the better a photochromic property is. • [3] Color fading half-life at 23°C [τ1/2 (sec).)]: This is a period of time taken by an absorbance at the maximum absorption wavelength of a sample to decrease to 1/2 of {ε(240)-ε(0)} when irradiation is stopped after irradiation with light at 23°C for 240 seconds, and was used as an index of a color fading rate. The shorter this period of time is, the faster the color fading rate is. • [4] […]

[2] = Photochromic property of binder sheet (photochromic layer made by binder method); details: for Residual ratio: A96/A0 x 100 after 96 hours accelerated degradation, xenon weather meter X25; for Color developing density at 23°C: absorbance difference after 240 seconds irradiation at the maximum absorption wavelength of the same line
Experimental: (§1) The resulting photochromic laminates were evaluated by the below-mentioned methods. • (1) Photochromic property • [1] Maximum absorption wavelength (λmax): This is the maximum absorption wavelength after color development determined by a spectrophotometer manufactured by Otsuka Electronics Co., Ltd. (instantaneous multichannel photo detector MCPD3000) and was used as an index of a color tone upon color development. • [2] Color developing density at 23°C (A23): This is a difference between an absorbance {ε(240)} after irradiation with light at 23°C for 240 seconds and an absorbance ε(0) when not irradiated with light at the maximum absorption wavelength and was used as an index of a color developing density. The higher this value is, the better a photochromic property is. • [3] Color fading half-life at 23°C [τ1/2 (sec).)]: This is a period of time taken by an absorbance at the maximum absorption wavelength of a sample to decrease to 1/2 of {ε(240)-ε(0)} when irradiation is stopped after irradiation with light at 23°C for 240 seconds, and was used as an index of a color fading rate. The shorter this period of time is, the faster the color fading rate is. • [4] Residual ratio (A96/A0 x 100): The resulting photochromic plastic lens was subjected to accelerated degradation for 96 hours using a xenon weather meter X25 manufactured by Suga Test Instruments Co., Ltd. Color developing densities were then evaluated before and after a test, and a color developing density before the test (A0) and a color developing density after the test (A96) were measured. A ratio (A96/A0) was determined as a residual ratio and was used as an index of color development durability. The higher the residual ratio is, the more durable the color development is.
A binder sheet was produced as follows. The binder sheet was made by laminating a first optical sheet, a first adhesive layer, a photochromic layer, a second adhesive layer, and a second optical sheet in this order. A polycarbonate sheet with a thickness of 400 µm was used as the first optical sheet and the second optical sheet.
A 2 L four-necked flask equipped with a stirring blade, a condense tube, a thermometer, and a nitrogen gas inlet tube was charged with 315 parts by mass of polycarbonate diol with a number average molecular weight of 1000, 100 parts by mass of isophorone diisocyanate, and 72 parts by mass of toluene and reacted under a nitrogen atmosphere at 100°C for 7 hours. Thus, a urethane prepolymer with a terminal isocyanate group was synthesized. After the reaction of the above-mentioned urethane prepolymer was completed, the resulting reaction liquid was cooled to about 0°C and dissolved in 205 parts by mass of tertiary-butyl alcohol and 382 parts by mass of diethyl ketone, and then a temperature of the resulting liquid was kept at 0°C. Next, a mixed solution of 21.3 parts by mass of bis-(4-aminocyclohexyl)methane serving as a chain extender and 20 parts by mass of diethyl ketone was added dropwise thereto within 30 minutes and reacted at 0°C for 1 hour. Then, 8.1 parts by mass of 1,2,2,6,6-pentamethyl-4-aminopiperidine was added dropwise thereto and reacted at 0°C for 1 hour to obtain a solution of a terminal non-reactive urethane urea resin in diethylketone.
One hundred parts by mass of the resulting solution of a terminal non-reactive urethane urea resin, 6.3 parts by mass of Example 1 (a photochromic compound represented by Formula (1-7), an isomer mixture of 4,4'-methylenebis(cyclohexylisocyanate) (polyisocyanate compound)), 0.4 parts by mass of ethylenebis(oxyethylene) bis[3-(5-tert-butyl-4-hydroxy-m-tolyl) propionate] serving as an antioxidant, and 0.06 parts by mass of L-7001 manufactured by DuPont Toray Specialty Materials K.K. serving as a surfactant were added and stirred and mixed at room temperature to obtain a composition for forming a photochromic layer. […]

[3] = Photochromic property of photochromic cured product made by kneading method; details: for Residual ratio: A96/A0 x 100 after 96 hours accelerated degradation, xenon weather meter X25; for Color developing density at 23°C: absorbance difference after 240 seconds irradiation at the maximum absorption wavelength of the same line
Experimental: as §1
First, the photochromic compound obtained in Example 1, an additive, and a polymerizable compound were mixed to obtain a curable composition. The polymerizable compound was a combination of the following polymerizable monomers: • · 1,3-Bis(isocyanatomethyl)cyclohexane: 36.7 parts by mass • · Pentaerythritol tetrakis(3-mercaptopropionate): 39.4 parts by mass • · Polyoxyethylene polyoxypropylene lauryl ether (WONDERSURF 140 manufactured by AOKI OIL INDUSTRIAL Co., Ltd.): 17.4 parts by mass • · 1-Decanethiol: 2.8 parts by mass • · RX-1 prepared by the method described in Patent Document 14: 3.8 parts by mass
Note that, in the curable composition, the photochromic compound was added in an amount of 0.106 mmol taking a total amount of the polymerizable monomers as 100 g.
The following additives were used: • · Dimethyltin dichloride: 0.05 parts by mass • · Irganox 245: 0.1 parts by mass • · 2-Ethylhexyl […]: 0.6 parts by mass
After the thus-prepared curable composition was thoroughly defoamed, it was poured into a glass mold with a gap of 1 mm and polymerized by casting polymerization. […] After the polymerization, the resulting cured product was removed from the glass mold to obtain a photochromic cured product with a thickness of 1 mm. The resulting photochromic cured product was evaluated in the same manner as for Example 23.
Photochromic cured products were produced using the photochromic compounds shown in Table 4 in the same manner as in Example 50.

[4] = Solubility of photochromic compound in polymerizable compounds; design: key: 1: No haze is seen when checked under transmission of light, and the sample is completely dissolved.; 2: A very thin haze is seen to the extent that it can be seen under transmission of light.; 3: A thin haze that can be seen under transmission of light is seen.; 4: A haze can be seen even without transmission of light; details: 35 µmol/g in radical polymerizable compound composition of Example 21, 65 to 70°C; for Dissolution for 15 min / Dissolution for 30 min / Dissolution for 45 min: stirring and ultrasonic irradiation; for Dissolution for 1 hour: head reads 60 min in Tables 8 to 14
Experimental: The photochromic compounds according to Examples and Comparative examples shown in Table 5 were evaluated for solubility in polymerizable compounds.
Specifically, a sample was prepared by adding each of the photochromic compounds to the composition, which consisted of a radical polymerizable compound, among the curable compositions used in Example 21.
Note that, this test was performed using "YOKAI-KUN USS-1" manufactured by NIHONSEIKI KAISHA LTD. under the following conditions: • Dissolution temperature: 65 to 70°C • Stirring condition: Stirring dial of 5. Ultrasonic irradiation condition: Irradiation interval of 3 sec.
Dissolution was checked every 15 minutes up to 1 hour later, the sample was visually checked by transmitting light through the sample, and a degree of dissolution was evaluated according to the following four evaluation criteria.
• 1: No haze is seen when checked under transmission of light, and the sample is completely dissolved. • 2: A very thin haze is seen to the extent that it can be seen under transmission of light. • 3: A thin haze that can be seen under transmission of light is seen. • 4: A haze can be seen even without transmission of light.
A shorter time required for the evaluation result to be 1 means higher solubility.

Row | Structure (SMILES) | Color fading half-life at 23°C [1] | Residual ratio [1] | Residual ratio [2] | Color developing density at 23°C [2] | Residual ratio [3] | Color developing density at 23°C [3] | Dissolution for 15 min [4] | Dissolution for 30 min [4] | Dissolution for 45 min [4] | Dissolution for 1 hour [4]
1 | CCCC1(C)c2cc(C)ccc2-c2c1c1c(c3cc(C)ccc23)OC(c2ccc(C)cc2)(c2ccc(OC)cc2)C=C1 (centres unmarked) [Formula (1-5)] | 137 s | 62% | 82% | 0.65 - and 1.11 - | 71% | 0.66 - and 1.10 - |  |  |  | 
2 | CCCCCC1(CCC)c2cc(N(c3ccccc3)c3ccccc3)ccc2-c2c1c1c(c3cc(OC)ccc23)OC(c2ccc(OC)cc2)(c2ccc(OC)cc2)C=C1 (centres unmarked) [Formula (8-3)] | 100 s |  |  |  | 72% and 71% | 1.07 - and 0.96 - |  |  |  | 
3 | CCC1(C)c2ccccc2-c2c1c1c(c3cc(OC)c(-c4ccc(OC)cc4OC)cc23)OC(c2ccc(OC)cc2)(c2ccc(N(C)c3ccccc3)cc2)C=C1 (centres unmarked) [Formula (13-2)] |  | 63% | 82% and 83% | 0.74 - and 1.05 - | 72% and 71% | 0.75 - and 1.05 - |  |  |  | 
4 | CCCCCCC1(CC)c2ccccc2-c2c1c1c(c3cc(OC)ccc23)OC(c2ccc(C)cc2)(c2ccc(N(C)c3ccccc3)cc2)C=C1 (centres unmarked) [Formula (7-4)] |  | 60% |  |  | 67% and 66% | 0.63 - and 1.13 - |  |  |  | 

The next lines start with the values.

Row | Color fading half-life at 23°C [1] | Residual ratio [1] | Residual ratio [2] | Color developing density at 23°C [2] | Residual ratio [3] | Color developing density at 23°C [3] | Dissolution for 15 min [4] | Dissolution for 30 min [4] | Dissolution for 45 min [4] | Dissolution for 1 hour [4] | Structure (SMILES)
5 | 85 s |  |  |  | 70% and 69% | 1.10 - and 1.07 - | 3 | 2 | 1 | 1 | CCCCC1(CCC)c2cc(C)ccc2-c2c1c1c(c3cc(OC)c(-c4ccc(N5CCOCC5)cc4)cc23)OC(c2ccc(OC)cc2)(c2ccc(N3CCOCC3)cc2)C=C1 (centres unmarked) [Formula (10-1)]
6 |  |  | 90% and 91% | 0.61 - and 0.73 - |  |  | 3 | 2 | 1 | 1 | CCCCCC1(CC)c2cc(OC(F)(F)F)ccc2-c2c1c1c(c3cc(OC)ccc23)OC(c2ccc(OC)cc2)(c2ccc(OC)cc2)C=C1 (centres unmarked) [Formula (15-1)]
7 |  |  | 68% and 70% | 1.68 - and 0.84 - | 58% and 59% |  |  |  |  |  | CCCCC1(CC)c2cc(-c3ccc(C(C)(C)C)cc3)ccc2-c2c1c1c(c3cc(OC)c(N4CCCCC4)cc23)OC(c2ccc(OC)cc2)(c2ccc(OC)cc2)C=C1 (centres unmarked) [Formula (17-2)]
8 |  | 69% 69% | 92% and 91% | 1.21 - and 1.03 - |  |  |  |  |  |  | CCCCCCC1(CC)c2cc(-c3ccc(OC(C)C)cc3)ccc2-c2c1c1c(c3cc(OC)c(-c4ccc(OC(C)C)cc4)cc23)OC(c2ccc(OC)cc2)(c2ccc(OCCC)cc2)C=C1 (centres unmarked) [Formula (11-1)]
9 |  |  | 80% and 81% | 1.33 - and 0.84 - |  |  |  |  |  |  | CCCCC1(C)c2cc(-c3ccc(C)cc3)ccc2-c2c1c1c(c3cc(OC)c(OC)cc23)OC(c2ccc(OC)cc2)(c2ccc(OC)cc2)C=C1 (centres unmarked) [Formula (5-6)]
